Results reported in article PMC11542720, “Modelling of chromatographic and electrophoretic behaviour of imidazoline and alpha adrenergic receptors ligands under different acid-base conditions” (ADMET & DMPK, 2024).
Counter-ions that a name gives are not always drawn. Like-named read-outs stand apart in the source and are kept apart here.

Tests used:
[1] = RP-HPLC retention on XTerra RP18, methanol/buffer; extrapolated retention factor log kw and slope S; assay type: physicochemical; conditions: for log kw: intercept, extrapolated to 100 % buffer, methanol/buffer, 25 °C; for S (slope): slope of log k vs methanol volume fraction
Description: All measurements were performed at 25°C with a constant flow rate of 0.8 mL min^-1 and UV detection in the range of 200-280 nm. The injection volume was 20 μL. […] The retention factor k was calculated for each mobile phase composition according to Equation (1):
where tr is the retention time of the tested compound and t0 is the dead volume measured with KNO3 as a non-retentive marker. The values corresponding to 100 % of the buffered eluent (log kw) were determined by extrapolation according to Equation (2):
where log kw is the intercept, S is the slope of the regression line, and φ is the volume fraction of the organic modifier in the mobile phase.
The retention behaviour in HPLC system was monitored by calculating extrapolated retention factors log kw corresponding to pure buffer as mobile phase.

[2] = Capillary electrophoresis, effective electrophoretic mobility (acetone as EOF marker); assay type: physicochemical; conditions: for µeff4.4: pH 4.4; for µeff4.4 / µeff7.4 / µeff9.1: I = 25 mmol/L, 11 kV, 25 °C, three replicates; for µeff9.1 / μeff9.1 (effective electrophoretic mobility): pH 9.1
Description: All experiments were performed using the SpectraPhoresis 500-capillary electrophoresis system (Spectra Physics Analytical, USA) with UV detector. Data were recorded and analyzed using ChromQuest software version 4.0 (Thermo Finnigan, USA).
The separations were performed with an uncoated fused capillary (total length 31.5 cm, 50 μm id, effective length 24 cm, Polymicro Technologies, USA) applying a voltage of 11 kV and at 25 °C. The samples were injected hydrodynamically and detection was performed in the 200-280 nm range. The new capillary was rinsed stepwise with 0.1 M NaOH (15 min), water (10 min) and a running buffer (10 min). Finally, a 10 min high voltage was applied through the background electrolyte-filled capillary to equalize the inner surface, stabilize the electroosmotic flow and ensure good reproducibility of injections from run to run. […] Between runs, the capillary was rinsed with the background electrolyte for 1 minute.
where Lt is the total length of the capillary (cm), Leff is the effective length of the capillary (cm), U is the applied voltage (V), tm is the migration time of the analyte (s) and teof is the migration time of the electroneutral EOF marker acetone (s). The calculated μeff values (μeff4.4, μeff7.4 and μeff9.1) were used as dependent variables in QSMR analysis.

[3] = cited from earlier work
[4] = pH-spectrophotometric, ref 14 (Supplement reference list)
[5] = pH titration, ref 4 (Supplement reference list)

Row | Compound | log kw ([1]; pH 4.4) | S (slope) ([1]; pH 4.4) | log kw ([1]; pH 7.4) | S (slope) ([1]; pH 7.4) | log kw ([1]; pH 9.1) | S (slope) ([1]; pH 9.1) | µeff4.4 [2] | µeff7.4 ([2]; pH 7.4) | µeff9.1 [2] | log kw ([1]; pH 4.4, listed as phenilephrine) | μeff9.1 (effective electrophoretic mobility) [2] | μeff7.4 (effective electrophoretic mobility, text) ([2]; pH 7.4) | pKa experimental ([3]; pH spectrophotometric, ref 13 (Supplement reference list)) | pKa experimental (first of two printed values) [3, 4] | pKa experimental (second of two printed values) [3, 4] | pKa experimental [3, 5] | pKa experimental ([3]; spectrophotometric, ref 15 (Supplement reference list))
1 | Cc1cc(C(C)(C)C)c(O)c(C)c1CC1=NCCN1 [Oxymetazoline, oxymetazoline hydrochloride] | 2.33 ± 0.02 | -3.89 ± 0.04 | 2.33 ± 0.04 | -3.61 ± 0.10 | 2.60 ± 0.07 | -4.14 ± 0.16 | 20.276 ± 0.040 10^-5 cm^2 V^-1 s^-1 | 19.061 ± 0.049 10^-5 cm^2 V^-1 s^-1 | 19.556 ± 0.076 10^-5 cm^2 V^-1 s^-1 |  |  |  | 10.62 |  |  |  | 
2 | c1ccc2c(c1)CCCC2C1=NCCN1 (stereo not shown) [Tetrahydrozoline, tetrahydrozoline hydrochloride] | 1.06 ± 0.02 | -2.94 ± 0.05 | 1.08 ± 0.01 | -3.24 ± 0.06 | 1.32 ± 0.03 | -2.99 ± 0.07 | 25.680 ± 0.049 10^-5 cm^2 V^-1 s^-1 | 24.299 ± 0.057 10^-5 cm^2 V^-1 s^-1 | 25.047 ± 0.066 10^-5 cm^2 V^-1 s^-1 |  | 25.05 10^-5 cm^2 / V s |  |  |  |  | 10.51 ± 0.05 | 
3 | Nc1nc(N)c2nc(-c3ccccc3)c(N)nc2n1 [Triamterene, triamterene] | 1.75 ± 0.05 | -3.96 ± 0.14 | 1.92 ± 0.05 | -3.76 ± 0.12 | 1.93 ± 0.04 | -3.75 ± 0.11 | 22.146 ± 0.019 10^-5 cm^2 V^-1 s^-1 | 1.140 ± 0.053 10^-5 cm^2 V^-1 s^-1 | 0.000 ± 0.000 10^-5 cm^2 V^-1 s^-1 |  | zero | 1.140±0.053 10^-5 cm^2 / V s |  |  |  |  | 7.16

Continued, in another order:

Row | log kw ([1]; pH 4.4) | S (slope) ([1]; pH 4.4) | log kw ([1]; pH 7.4) | S (slope) ([1]; pH 7.4) | log kw ([1]; pH 9.1) | S (slope) ([1]; pH 9.1) | µeff4.4 [2] | µeff7.4 ([2]; pH 7.4) | µeff9.1 [2] | log kw ([1]; pH 4.4, listed as phenilephrine) | μeff9.1 (effective electrophoretic mobility) [2] | μeff7.4 (effective electrophoretic mobility, text) ([2]; pH 7.4) | Compound | pKa experimental ([3]; pH spectrophotometric, ref 13 (Supplement reference list)) | pKa experimental (first of two printed values) [3, 4] | pKa experimental (second of two printed values) [3, 4] | pKa experimental [3, 5] | pKa experimental ([3]; spectrophotometric, ref 15 (Supplement reference list))
4 | 0.09 ± 0.02 | -2.53 ± 0.14 | 0.04 ± 0.01 | -2.62 ± 0.06 | 0.39 ± 0.02 | -2.00 ± 0.06 | 25.780 ± 0.006 10^-5 cm^2 V^-1 s^-1 | 21.650 ±0.195 10^-5 cm^2 V^-1 s^-1 | 8.661 ± 0.036 10^-5 cm^2 V^-1 s^-1 | 0.09 |  |  | CNC[C@H](O)c1cccc(O)c1 [Phenilephrine, Phenilephrine hydrochloride] |  | 9.17 | 9.17 and 10.45 (pH-spectrophotometric) [14 ] |  | 
5 | 1.55 ± 0.03 | -3.43 ± 0.07 | 1.51 ± 0.01 | -3.51 ± 0.06 | 1.74 ± 0.01 | -3.37 ± 0.03 | 24.393 ± 0.067 10^-5 cm^2 V^-1 s^-1 | 22.988 ± 0.060 10^-5 cm^2 V^-1 s^-1 | 23.713 ± 0.031 10^-5 cm^2 V^-1 s^-1 |  |  |  | c1cc2c(c(NC3=NCCN3)c1)CCCC2 [Tramazoline, Tramazoline hydrochloride] |  |  |  | 10.66 ± 0.05 | 
